US7780997B2, “Pharmaceutically active extracts of vitex leucoxylon, a process of extracting the same and a method of treating diabetes and inflammatory diseases therewith” (Laila Impex, priority 2005, dated 2010)

Tests used:
Albino wistar rats [1] = experiment: Anti-inflammatory activity (Carrageenin induced paw edema method); assay type: in vivo; conditions: Rattus norvegicus, oral dose 25 mg/Kg, 3 h after carrageenin
Procedure: Anti-inflammatory activity (Carrageenin induced paw edema method): Prior to the experiment all the animals (Albino wistar rats of either sex weighing between 180-300 g) fasted at ad libitum water and were weighed, numbered and randomly divided into groups, each containing 3 animals. Initial paw volumes were measured using plethesmometer and noted. All the groups were treated with corresponding test substance orally using gastric tube. Control group was treated with 10 mL/Kg vehicle (0.5%, carboxymethyl cellulose sodium salt). After 30 minutes, all the animals were injected subcutaneously at subplantar region of left hind paw 1% carrageenin 0.1 mL using hypodermic needle. All the animals were administered water 20 mL/Kg body weight and kept devoid of water for 3 h (maintained uniform hydration). After 3 h, paw volumes of all the animals were measured twice and average volume from two measurements were recorded. The % of inhibition of paw edema was calculated by comparing paw edema of test substance treated groups with that of control groups.

Albino wistar rats [2] = experiment: Hypoglycemic activity: inhibition of sucrose-induced raise in serum glucose levels (SGL); assay type: in vivo, rat; conditions: for Increased SGL (mean ± SE): 20 mL/kg of 20% sucrose after 30 min, blood one hour after treatment, rats; for % of inhibition (increase in serum glucose levels vs control): sucrose-loaded rats
Procedure: Hypoglycemic activity: Hypoglycemic activity was tested by the inhibition of sucrose-induced raise in serum glucose levels (SGL), by the V. leucoxylon extracts in Albino wistar rats. The procedure involves fasting the rats for overnight at ad libitum water, numbered weighed and randomly divided into groups of three animals each. Prior to treatment blood samples were drawn from sinus orbital plexus of all animals using heparin coated glass capillaries under mild ether anesthesia. The blood samples were tested for serum glucose levels using enzymatic GOD/POD method. Optical densities were measured at 500 nm, SGL was calculated as follows. SGL=(test OD/Standard OD)×100 and the results were expressed in mg/dL. All the groups were treated orally with corresponding test substances, standard, vehicle (5% gum acacia). After 30 minutes, all animals were given 20 mL/kg of 20% sucrose solution orally using gastric tube. One hour after treatment, blood samples were drawn again under mild ether anesthesia and tested for serum glucose levels in a similar procedure as described above for initial serum glucose estimation. The data was subjected to statistical treatment using t-test and inhibitory rate was calculated by comparing mean increase in serum glucose levels of control and red groups.

O=C(O)Cc1ccccc1Nc1c(Cl)cccc1Cl [Diclofenac sodium]
inhibition at 25 mg/kg (Albino wistar rats [1]): 63.1%

C[C@H]1[C@H](C)CC[C@]2(C(=O)O)CC[C@]3(C)C(=CC[C@@H]4[C@@]5(C)C[C@@H](O)[C@H](O)C(C)(C)[C@@H]5CC[C@]43C)[C@H]12 [Corosolic acid]
Increased SGL (mean ± SE) (Albino wistar rats [2]; oral dose 1 mg/Kg): 27.72 ± 3.27 mg/dL | % of inhibition (increase in serum glucose levels vs control) (Albino wistar rats [2]; oral dose 1 mg/Kg): 9.78%

COc1ccc(Cl)cc1C(=O)NCCc1ccc(S(=O)(=O)NC(=O)NC2CCCCC2)cc1 [Glibenclamide]
Increased SGL (mean ± SE) (Albino wistar rats [2]; oral dose 25 mg/Kg): 6.12 ± 4.32 mg/dL | % of inhibition (increase in serum glucose levels vs control) (Albino wistar rats [2]; oral dose 25 mg/Kg): 80.0%
